The values below come from US9926297B2, “Bicyclic AZA compounds as muscarinic M1 receptor and/or M4 receptor agonists” (Heptares Therapeutics Limited, priority 2014, dated 2018).

Structures are written as SMILES. A value given as a limit tells only on which side of the number the result lay.

Assay [1] concerns the target T1, human muscarinic M1 receptor (Homo sapiens, UniProt P11229).
T1 sequence (P11229 1-460): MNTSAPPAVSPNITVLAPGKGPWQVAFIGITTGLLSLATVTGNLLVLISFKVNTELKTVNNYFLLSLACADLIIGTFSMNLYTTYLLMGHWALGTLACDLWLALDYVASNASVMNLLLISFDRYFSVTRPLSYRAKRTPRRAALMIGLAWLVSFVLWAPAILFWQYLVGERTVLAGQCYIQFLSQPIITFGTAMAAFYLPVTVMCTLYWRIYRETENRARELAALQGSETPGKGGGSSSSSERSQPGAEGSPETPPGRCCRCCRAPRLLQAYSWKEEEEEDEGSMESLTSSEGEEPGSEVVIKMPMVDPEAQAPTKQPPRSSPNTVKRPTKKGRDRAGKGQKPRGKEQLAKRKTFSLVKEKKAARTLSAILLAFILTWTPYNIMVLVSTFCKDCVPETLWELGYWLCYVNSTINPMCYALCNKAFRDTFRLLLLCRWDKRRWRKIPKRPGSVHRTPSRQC
As to the kind of experiment: Alphascreen Surefire phospho-ERK1/2 functional assay, M1. Type of assay: cell-based. To be noted: for EC50 / % Emax cf. ACh, M1: CHO cells stably expressing human M1; for EC50: phospho-ERK1/2, * = variable results, read-out: pEC50 M1 (converted); for Emax: CHO, read-out: % Emax cf. ACh, M1, CHO cells stably expressing human M1; for Emax / % Emax cf. ACh, M1: relative to ACh. On the technique in general: Bead proximity is the source of the signal in Alpha formats.

The target in assay [2] is T2, human muscarinic M4 receptor (Homo sapiens, UniProt P08173).
T2 construct: expressed in transfected cells
T2 sequence (P08173 1-479): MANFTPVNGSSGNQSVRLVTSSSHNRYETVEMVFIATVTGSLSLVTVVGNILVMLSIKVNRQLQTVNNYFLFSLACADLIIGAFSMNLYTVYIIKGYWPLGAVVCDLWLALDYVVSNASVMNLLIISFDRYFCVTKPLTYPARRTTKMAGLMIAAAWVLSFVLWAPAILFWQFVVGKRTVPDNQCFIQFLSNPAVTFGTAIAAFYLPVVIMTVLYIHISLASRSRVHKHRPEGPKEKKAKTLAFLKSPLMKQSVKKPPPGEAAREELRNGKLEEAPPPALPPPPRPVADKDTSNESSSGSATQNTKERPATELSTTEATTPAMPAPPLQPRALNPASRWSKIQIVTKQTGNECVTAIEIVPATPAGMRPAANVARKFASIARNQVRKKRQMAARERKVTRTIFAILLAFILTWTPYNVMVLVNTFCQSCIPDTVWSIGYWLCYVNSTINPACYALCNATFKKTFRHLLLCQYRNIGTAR
As to the kind of experiment: Alphascreen Surefire phospho-ERK1/2 functional assay, M4. Type of assay: cell-based. To be noted: for EC50: phospho-ERK1/2, * = variable results, read-out: pEC50 M4 (converted); for Emax: CHO, read-out: % Emax cf. ACh, M4, CHO cells stably expressing human M4.

The mark [3] stands for this setting: CHO cells stably expressing human M4.

As to `COC(=O)N1CCC2(CC(N3CCC([C@@H]4CCCN4C(=O)N4CC(F)(F)C4)CC3)C2)C1` (single isomer, unassigned) [2-41 Isomer 2], the EC50 in assay [1] was 2510 nM; in assay [2] (setting [3]), 100 nM. Also, the Emax in assay [1] turned out to be 36%; in assay [2] (relative to ACh) it was 91%.

Consider `CCOC(=O)N1CCC2(CC(N3CCC([C@@H]4CCCN4C(=O)OCCF)CC3)C2)C1` (single isomer, unassigned) [2-47 Isomer 2], for which the EC50 is 6310 nM in assay [1] and 1000 nM in assay [2] (setting [3]). The Emax in assay [1] turned out to be 45%; in assay [2] (relative to ACh) it was 63%.

For the molecule `CCOC(=O)N1CCC2(CC(N3CCC([C@@H]4CCCN4C(=O)N(C)CC(F)(F)F)CC3)C2)C1` (single isomer, unassigned) [2-55 Isomer 1], the EC50 is > 20000 nM in assay [1] and 158 nM in assay [2] (setting [3]). Also, the “% Emax cf. ACh, M1” value in assay [1] was determined as 15%. The Emax in assay [2] (relative to ACh) came to 67%.

For the molecule `CCOC(=O)N1CCC2(CC(N3CCC([C@@H]4CCCN4CC)CC3)C2)C1` (single isomer, unassigned) [2-61 Isomer 2], the EC50 in assay [1] is > 20000 nM; in assay [2] (setting [3]), 501 nM. For the same molecule, the Emax in assay [1] worked out at 10%; in assay [2] (relative to ACh) it was 40%.

Regarding `CCOC(=O)N1CCC2(CC(N3CCC([C@@H]4CCCN4CCC(F)(F)F)CC3)C2)C1` (single isomer, unassigned) [2-70 Isomer 1], in assay [1], the EC50 is 3980 nM and the “% Emax cf. ACh, M1” value is on record as 37%. For the same molecule, the EC50 in assay [2] (setting [3]) is 158 nM. The “% Emax cf. ACh, M4” value in assay [2] (CHO cells stably expressing human M4, relative to ACh) amounted to 52%.

Regarding `CCOC(=O)N1CCC2(CC(N3CCC([C@@H]4CCCN4CCOC)CC3)C2)C1` (single isomer, unassigned) [2-71 Isomer 2], the values for the EC50 in assay [1] and in assay [2] (setting [3]) were 5010 nM and 126 nM, respectively. The Emax in assay [1] stood at 39%; in assay [2] (relative to ACh) it was 56%.

In the case of `CCOC(=O)N1CCC2(CC(N3CCC([C@@H]4CCCN4CC(=O)N(C)C)CC3)C2)C1` (single isomer, unassigned) [2-73 Isomer 2], the EC50 in assay [1] is > 20000 nM; in assay [2] (setting [3]), 316 nM. Also, the Emax in assay [1] came out at 14%; in assay [2] (relative to ACh) it was 43%.

As for `CCOC(=O)N1CCC2(CC(N3CCC([C@@H]4CCCN4c4ncccn4)CC3)C2)C1` (single isomer, unassigned) [2-81 Isomer 2], the EC50 in assay [1] is > 20000 nM; in assay [2] (setting [3]) it was 63.1 nM. The results for the Emax in assay [1] and in assay [2] (relative to ACh) were 12% and 33%, respectively.

Turning to `CCOC(=O)N1CCC2(CC(N3CCC([C@@H]4CCCN4c4nncs4)CC3)C2)C1` (single isomer, unassigned) [2-83 Isomer 2], the EC50 was 3980 nM in assay [1] and 10 nM in assay [2] (setting [3]). The Emax came to 55% in assay [1] and 100% in assay [2] (relative to ACh).

On to `CCOC(=O)N1CCC2(CC(N3CCC(N4CCC[C@H]4C(=O)NC)CC3)C2)C1` (single isomer, unassigned) [2-85 Isomer 2], for which the EC50 in assay [1] is 2510 nM; in assay [2] (setting [3]), > 20000 nM. For the same molecule, the Emax in assay [1] is 66%; in assay [2] (relative to ACh) it was 3%.

As to `CCOC(=O)N1CCC2(CC(N3CCC(N4CC(F)(F)C[C@H]4C(=O)NC)CC3)C2)C1` (single isomer, unassigned) [2-93 Isomer 2], the EC50 in assay [1] and in assay [2] (setting [3]) was > 20000 nM in each case. The Emax in assay [1] amounted to 7%; in assay [2] (relative to ACh), 3%.

With `CCOC(=O)N1CCC2(CC(N3CCC(N4CC(F)(F)C[C@H]4C(=O)N(C)C)CC3)C2)C1` (single isomer, unassigned) [2-94 Isomer 2], the EC50 in assay [1] is > 20000 nM; in assay [2] (setting [3]), 6760 nM. For the same molecule, the results for the Emax in assay [1] and in assay [2] (relative to ACh) were 7% and 80%, respectively.

Regarding `CCOC(=O)N1CCC2(CC(N3CCC(N4CC[C@@H](F)C4)CC3)C2)C1` (single isomer, unassigned) [2-98 Isomer 2], the EC50 was > 20000 nM in assay [1] and 126 nM in assay [2] (setting [3]). The Emax in assay [1] was found to be 10%; in assay [2] (relative to ACh), 45%.

In the case of `CCOC(=O)N1CCC2(CC(N3CCC(N4CC[C@H](F)C4)CC3)C2)C1` (single isomer, unassigned) [2-99 Isomer 2], the values for the EC50 in assay [1] and in assay [2] (setting [3]) were > 20000 nM and 158 nM, respectively. For the same molecule, the Emax was 18% in assay [1] and 54% in assay [2] (relative to ACh).

Regarding `CCOC(=O)N1CCC2(CC(N3CCC(N4CCC[C@H]4C(F)(F)F)CC3)C2)C1` (single isomer, unassigned) [2-101 Isomer 2], the EC50 in assay [1] was 10000 nM; in assay [2] (setting [3]) it was 631 nM. Also, the maximal response (Emax) in assay [1] is 70%; in assay [2] (relative to ACh) it was 98%.

As for `CCOC(=O)N1CCC2(CC(N3CCC(N4CC5CC5C4)CC3)C2)C1` (single isomer, unassigned) [2-105 Isomer 2, ethyl 2-[4-(3-azabicyclo[3.1.0]hex-3-yl)piperidin-1-yl]-6-azaspiro[3.4]octane-6-carboxylate], the EC50 is > 20000 nM in assay [1] and 200 nM in assay [2] (setting [3]). The Emax in assay [1] amounted to 26%; in assay [2] (relative to ACh) it was 38%.

As to `CCOC(=O)N1CCC2(CC(N3CCC(N4C(=O)CCC4=O)CC3)C2)C1` (single isomer, unassigned) [2-112 Isomer 2, ethyl 2-[4-(2,5-dioxopyrrolidin-1-yl)piperidin-1-yl]-6-azaspiro[3.4]octane-6-carboxylate], the EC50 in assay [1] was > 20000 nM; in assay [2] (setting [3]) it was 251 nM. Moreover, the Emax in assay [1] came out at 7%; in assay [2] (relative to ACh), 63%.

Turning to `CCOC(=O)N1CCC2(CC(N3CCC(N4C(=O)CC[C@H]4C)CC3)C2)C1` (single isomer, unassigned) [2-113 Isomer 2], the EC50 was 126 nM in assay [1] and 15.8 nM in assay [2] (setting [3]). Further, the Emax came to 100% in assay [1] and 113% in assay [2] (relative to ACh).

As for `CCOC(=O)N1CCC2(CC(N3CCC(N4C(=O)CC[C@H]4CC)CC3)C2)C1` (single isomer, unassigned) [2-114 Isomer 2], the values for the EC50 in assay [1] and in assay [2] (setting [3]) were 126 nM and 7.94 nM, respectively. The Emax came out at 103% in assay [1] and 114% in assay [2] (relative to ACh).

In the case of `CCOC(=O)N1CCC2(CC(N3CCC(N4C(=O)CC[C@@H]4C)CC3)C2)C1` (single isomer, unassigned) [2-115 Isomer 2], the results for the EC50 in assay [1] and in assay [2] (setting [3]) were 200 nM and 25.1 nM, respectively. Moreover, the Emax in assay [1] is 68%; in assay [2] (relative to ACh), 78%.

Take `CCOC(=O)N1CCC2(CC(N3CCC(N4C(=O)CC[C@@H]4CC)CC3)C2)C1` (single isomer, unassigned) [2-116 Isomer 2]: the results for the EC50 in assay [1] and in assay [2] (setting [3]) were 63.1 nM and 6.31 nM, respectively. Also, the Emax in assay [1] came to 109%; in assay [2] (relative to ACh), 103%.

As for `CCOC(=O)N1CCC2(CC(N3CCC(N4C(=O)OC[C@H]4C)CC3)C2)C1` (single isomer, unassigned) [2-118 Isomer 2], the EC50 in assay [1] was > 20000 nM; in assay [2] (setting [3]), 126 nM. Further, the Emax in assay [1] is 33%; in assay [2] (relative to ACh), 84%.

With `CCOC(=O)N1CCC2(CC(N3CCC(N4C(=O)OC[C@H]4CC)CC3)C2)C1` (single isomer, unassigned) [2-119 Isomer 2], the EC50 in assay [1] was 2510 nM; in assay [2] (setting [3]), 126 nM. In addition, the Emax in assay [1] came to 85%; in assay [2] (relative to ACh) it was 84%.

For orientation: Emax means the greatest response seen or fitted, relative to the assay's reference.
